Test results reported in paper PMC12195648 (Pharmaceuticals, 2025).
Like-named read-outs stand apart in the source and are kept apart here.

Legend:
recombinant Abl1 kinase = biological target: T1, recombinant Abl1 kinase (Homo sapiens, UniProt P00519); assay: Abl1 kinase inhibition assay (peptide substrate, [γ-33P]ATP); format: biochemical
T1 construct: made in house
Experimental: The inhibitory activity of the synthesized compounds was assessed on an in-house produced recombinant Abl1 kinase. The assay utilized 500 µM peptide […] as a substrate in the presence of 1 µM ATP + [γ-33P]ATP (0.05 µCi per reaction) and the test compound in a final volume of 10 µL of reaction buffer (60 mM HEPES-NaOH, pH 7.5, 3 mM MgCl2, 3 mM MnCl2, 3 μM Na-orthovanadate, 1.2 mM DTT, 2.5 μg/50 μL PEG20.000). The reaction was terminated by adding 5 µL of 3% aq. H3PO4. Aliquots were spotted onto P-81 phosphocellulose (Whatman, Maidstone, UK), washed three times with 0.5% aq. H3PO4, and air-dried. Peptide phosphorylation was quantified through digital autoradiography (FLA-7000; Fujifilm, Tokyo, Japan).

K562 cells = assay: Cytotoxicity, resazurin assay, K562; format: cell-based, human; details: for SI (K562): GI50 HEK-293T / GI50 K562; for GI50: Homo sapiens, K562, 72 h, resazurin, GI50 ± SD
Experimental: (§1) The development of the KCL22 subclone B8 (T315I, 100%) has been previously detailed. All cell lines were maintained in a humidified incubator at 37 °C and 5% CO2, following the manufacturer’s instructions, in the appropriate medium supplemented with 10% foetal bovine serum, penicillin (100 IU/mL), streptomycin (100 µg/mL), and glutamine (4 mM).
(§2) Cytotoxicity was assessed utilizing resazurin, an indicator dyes that measures oxidation-reduction reactions in the mitochondria of living cells. Cells were seeded into 96-well plates and treated with the compounds for 72 h (six different doses of each compound, in triplicate).

KCL22 cells = assay: Cytotoxicity, resazurin assay, KCL22; format: cell-based, human; details: for SI (KCL22): GI50 HEK-293T / GI50 KCL22; for GI50: Homo sapiens, KCL-22, 72 h, resazurin, GI50 ± SD
Experimental: as §1, §2

KCL22-B8 cells = assay: Cytotoxicity, resazurin assay, KCL22-B8 (Bcr-Abl T315I); format: cell-based, human; details: for SI (KCL22-B8): GI50 HEK-293T / GI50 KCL22-B8; for GI50: 72 h, resazurin, GI50 ± SD, Bcr-Abl T315I, imatinib-resistant
Experimental: as §1, §2

HEK-293T cells = assay: Cytotoxicity, resazurin assay, non-neoplastic HEK-293T; format: cell-based; details: Homo sapiens, 72 h, GI50 ± SD
Experimental: as §1, with “The human cell line KCL22 was sourced from the German Collection of Microorganisms and Cell Cultures, while K562 and HEK-293T cells were obtained from the European Collection of Authenticated Cell Cultures. The” for “The”
Cytotoxicity was assessed utilizing resazurin, an indicator dyes that measures oxidation-reduction reactions in the mitochondria of living cells. Cells were seeded into 96-well plates and treated with the compounds for 72 h (six different doses of each compound, in triplicate). After treatment, a solution of resazurin (Merck, Prague, Czech Republic) was added for 4 h, and the fluorescence of resorufin corresponding to viable cell quantity was measured at 544 nm/590 nm (excitation/emission) using a Fluoroskan Ascent microplate reader (LabSystems, Helsinki, Finland).

[1] = system: KCL22 cells with Bcr-Abl^T315I; details: cited from earlier work
[2] = experimental pIC50 = −logIC50 on Abl, read-out: pIC50 Exp (converted)
[3] = in vitro inhibition of Abl1 kinase, 1 µM ATP, at least three independent experiments, read-out: IC50 Abl

T1 sequence (P00519 whole entry): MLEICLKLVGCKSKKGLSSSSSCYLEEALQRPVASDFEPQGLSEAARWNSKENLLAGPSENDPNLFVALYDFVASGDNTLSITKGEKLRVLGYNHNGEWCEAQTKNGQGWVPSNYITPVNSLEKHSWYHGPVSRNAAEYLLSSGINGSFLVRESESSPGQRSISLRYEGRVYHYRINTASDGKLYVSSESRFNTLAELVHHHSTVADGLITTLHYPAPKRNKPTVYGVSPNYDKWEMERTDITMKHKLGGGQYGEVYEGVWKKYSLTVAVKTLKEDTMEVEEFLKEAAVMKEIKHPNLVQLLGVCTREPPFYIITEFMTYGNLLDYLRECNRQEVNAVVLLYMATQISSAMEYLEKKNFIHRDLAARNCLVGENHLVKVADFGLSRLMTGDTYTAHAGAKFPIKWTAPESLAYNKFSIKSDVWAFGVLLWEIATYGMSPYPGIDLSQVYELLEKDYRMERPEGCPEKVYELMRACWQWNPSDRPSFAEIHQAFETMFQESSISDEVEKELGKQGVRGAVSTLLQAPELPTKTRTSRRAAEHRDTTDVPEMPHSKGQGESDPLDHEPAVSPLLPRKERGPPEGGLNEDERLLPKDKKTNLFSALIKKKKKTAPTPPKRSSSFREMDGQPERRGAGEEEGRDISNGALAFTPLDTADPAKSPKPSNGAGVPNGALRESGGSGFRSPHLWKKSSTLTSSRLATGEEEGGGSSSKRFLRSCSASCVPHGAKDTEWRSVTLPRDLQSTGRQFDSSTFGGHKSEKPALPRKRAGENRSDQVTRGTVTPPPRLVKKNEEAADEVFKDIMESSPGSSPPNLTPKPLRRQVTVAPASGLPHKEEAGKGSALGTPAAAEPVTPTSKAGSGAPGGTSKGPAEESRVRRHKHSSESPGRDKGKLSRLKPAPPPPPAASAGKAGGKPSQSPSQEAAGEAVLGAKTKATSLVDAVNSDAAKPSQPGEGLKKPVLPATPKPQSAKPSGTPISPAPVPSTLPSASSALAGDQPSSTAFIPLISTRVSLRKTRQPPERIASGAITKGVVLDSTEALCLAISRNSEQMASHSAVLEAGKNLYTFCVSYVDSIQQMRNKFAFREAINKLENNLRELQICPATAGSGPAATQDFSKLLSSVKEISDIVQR

| IC50 (recombinant Abl1 kinase; [2]) [µM] | IC50 (recombinant Abl1 kinase; [3]) [µM] | Structure (SMILES) | SI (K562) (K562 cells) | GI50 (K562 cells) [µM] | SI (KCL22) (KCL22 cells) | GI50 (KCL22 cells) [µM] | SI (KCL22-B8) (KCL22-B8 cells) | GI50 (KCL22-B8 cells; Homo sapiens) [µM] | GI50 (HEK-293T cells) [µM] | GI50 (KCL22-B8 cells) [µM] | fold more potent than 7b (K562 cells; K562 cells, GI50 ratio) [fold] | fold more potent than 7b (KCL22 cells; KCL22 cells, GI50 ratio) | GI50 [1] [µM] |
| --- | --- | --- | --- | --- | --- | --- | --- | --- | --- | --- | --- | --- | --- |
| 0.21 | 0.21 ± 0.01 | OCCN1CCN(c2ccc(Nc3nc(Nc4cccc(Br)c4)c4ncn(CC5CC5)c4n3)cc2)CC1 [Compound 7d, 2-(4-(4-((6-((3-Bromophenyl)amino)-9-(cyclopropylmethyl)-9H-purin-2-yl)amino)phenyl)piperazin-1-yl)ethan-1-ol] | 5.5 | 1.44 ± 0.91 | 2.7 | 2.96 ± 0.97 | 0.4 | 20.1 ± 2.35 | 7.87 ± 1.53 | – | – | – | – |
| 0.42 | 0.42 ± 0.08 | COC(=O)c1ccc(Nc2nc(Nc3ccc(N4CCN(CCO)CC4)cc3)nc3c2ncn3CC2CC2)cc1Cl [Compound 7e, Methyl 2-chloro-4-((9-(cyclopropylmethyl)-2-((4-(4-(2-hydroxyethyl)piperazin-1-yl)phenyl)amino)-9H-purin-6-yl)amino)benzoate] | 2.7 | 2.19 ± 1.42 | 1.7 | 3.88 ± 1.46 | 0.4 | 13.8 | 5.98 ± 2.78 | 15.4 ± 0.98 | – | – | – |
| 0.13 | 0.13 ± 0.03 | OCCOCCN1CCN(c2ccc(Nc3nc(Nc4cccc(F)c4)c4ncn(CC5CC5)c4n3)cc2)CC1 [Compound 7a, 2-(2-(4-(4-((9-(Cyclopropylmethyl)-6-((3-fluorophenyl)amino)-9H-purin-2-yl)amino)phenyl)piperazin-1-yl)ethoxy)ethan-1-ol] | 5.0 | 1.37 ± 0.61 | 2.9 | 2.38 ± 1.12 | 0.4 | 17.4 ± 2.02 | 6.85 ± 0.66 | – | – | – | – |
| 0.791 | 0.79 ± 0.14 | COc1cc(Nc2nc(Nc3ccc(N4CCN(CCO)CC4)cc3)nc3c2ncn3CC2CC2)ccc1Br [Compound 7g, 2-(4-(4-((6-((4-Bromo-3-methoxyphenyl)amino)-9-(cyclopropylmethyl)-9H-purin-2-yl)amino)phenyl)piperazin-1-yl)ethan-1-ol] | 1.8 | 2.34 ± 1.04 | 0.8 | 5.51 ± 1.08 | 0.3 | 15.4 | 4.32 ± 1.42 | 16.6 ± 0.92 | – | – | – |
| 0.19 | 0.19 ± 0.05 | N#Cc1cccc(Nc2nc(Nc3ccc(N4CCN(CCO)CC4)nc3)nc3c2ncn3CC2CC2)c1 [Compound 7c, 3-((9-(Cyclopropylmethyl)-2-((6-(4-(2-hydroxyethyl)piperazin-1-yl)pyridin-3-yl)amino)-9H-purin-6-yl)amino)benzonitrile] | – | 0.3 ± 0.11 | 16 | 1.54 ± 1.02 | 0.8 | > 25 | > 25 | – | 13 | approximately 8.5 fold | – |
| – | – | Cc1cn(-c2cc(NC(=O)c3ccc(C)c(Nc4nccc(-c5cccnc5)n4)c3)cc(C(F)(F)F)c2)cn1 [nilotinib] | – | – | – | – | – | – | – | – | – | – | > 20 |
| 0.46 | 0.46 ± 0.15 | N#Cc1cccc(Nc2nc(Nc3ccc(N4CCN(CCO)CC4)cc3)nc3c2ncn3CC2CC2)c1 [Compound 7b, 3-((9-(Cyclopropylmethyl)-2-((4-(4-(2-hydroxyethyl)piperazin-1-yl)phenyl)amino)-9H-purin-6-yl)amino)benzonitrile] | 3.6 | 4.04 ± 1.87 | 1.1 | 13.1 ± 2.21 | 0.8 | 17.9 ± 2.71 | 14.8 ± 0.91 | – | – | – | – |
| 1.26 | 1.26 ± 0.65 | OCCN1CCN(c2ccc(Nc3nc(Nc4ccc(Cl)c(C(F)(F)F)c4)c4ncn(CC5CC5)c4n3)cc2)CC1 [Compound 7f, 2-(4-(4-((6-((4-Chloro-3-(trifluoromethyl)phenyl)amino)-9-(cyclopropylmethyl)-9H-purin-2-yl)amino)phenyl)piperazin-1-yl)ethan-1-ol] | 1.1 | 3.56 ± 0.52 | 0.3 | 12.4 ± 4.28 | 0.3 | 15.4 | 3.96 ± 0.57 | 13.8 ± 3.05 | – | – | – |
